# Measurements published in publication PMC12379159 (Journal of Natural Products, 2025).
# Substitutions are numbered along the chain they refer to.
# Legend:
# Gal4-hRORγ = molecular target: T1, Gal4-hRORγ (Homo sapiens, UniProt P51449); test: Gal4-RORγ mammalian one-hybrid luciferase assay; assay type: cell-based; conditions: HEK293 cells
# T1 construct: Encodes for a hRORγ-LBD:Gal4-DBD fusion protein; expressed in transfected cells; host or cells: HEK293
# T1 sequence (P51449 269-508 limits assumed): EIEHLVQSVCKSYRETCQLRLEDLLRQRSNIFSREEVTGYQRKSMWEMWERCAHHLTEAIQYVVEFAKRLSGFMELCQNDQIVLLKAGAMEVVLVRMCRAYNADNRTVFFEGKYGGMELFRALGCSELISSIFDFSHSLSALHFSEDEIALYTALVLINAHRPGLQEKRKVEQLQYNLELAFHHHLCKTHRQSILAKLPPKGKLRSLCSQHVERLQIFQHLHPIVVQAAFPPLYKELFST
# Experimental: (§1) For luciferase assays, 8 × 10^6 HEK293 cells were seeded on 150 mm cell culture dishes and incubated for 5 h. Afterward, cells were transfected with the calcium phosphate coprecipitation method using 5 μg of the nuclear receptor (Gal4-hRORγ or full-length human RORγ), 5 μg of a luciferase reporter (pTK-MH100 × 4-LUC for Gal4-hRORγ experiments or RORE-LUC for full-length human RORγ experiments) and 3 μg eGFP-N1 (for assessing transfection efficiency) plasmid DNA and incubated overnight. […] The medium was changed the following day, and cells were further incubated for another four to 5 h before trypsin/EDTA was added to detach them from the dishes. […] RLUs were normalized to relative fluorescence units (RFU) to account for differences in cell number and transfection efficiency and then normalized to the vehicle control. Results are expressed as fold activation relative to the vehicle control.
# (§2) Concentration–response data were analyzed in GraphPad Prism version 10 by three-parameter logistic nonlinear regression, with the Hill slope constrained to a theoretical value of −1.0. An IC50 value was determined only for compounds yielding a statistically reliable fit. […] In these cases, only the maximal inhibition achieved at the highest tested concentration (I max(%) at 5 μM) is reported, calculated as follows: Imax(%)=(1−Bottom/Top)×100 (“top” = baseline activity measured at the lowest concentration, “bottom” = residual activity observed at the highest concentration, corresponding to the maximal inhibitory effect).
# full-length human RORγ = molecular target: T2, full-length human RORγ (Homo sapiens, UniProt P51449); test: Full-length RORγ luciferase assay (RORE-LUC reporter); assay type: cell-based; conditions: HEK293 cells, 5 μM
# T2 construct: Encodes for the full-length human RORγ; expressed in transfected cells; host or cells: HEK293
# T2 sequence (P51449 1-518): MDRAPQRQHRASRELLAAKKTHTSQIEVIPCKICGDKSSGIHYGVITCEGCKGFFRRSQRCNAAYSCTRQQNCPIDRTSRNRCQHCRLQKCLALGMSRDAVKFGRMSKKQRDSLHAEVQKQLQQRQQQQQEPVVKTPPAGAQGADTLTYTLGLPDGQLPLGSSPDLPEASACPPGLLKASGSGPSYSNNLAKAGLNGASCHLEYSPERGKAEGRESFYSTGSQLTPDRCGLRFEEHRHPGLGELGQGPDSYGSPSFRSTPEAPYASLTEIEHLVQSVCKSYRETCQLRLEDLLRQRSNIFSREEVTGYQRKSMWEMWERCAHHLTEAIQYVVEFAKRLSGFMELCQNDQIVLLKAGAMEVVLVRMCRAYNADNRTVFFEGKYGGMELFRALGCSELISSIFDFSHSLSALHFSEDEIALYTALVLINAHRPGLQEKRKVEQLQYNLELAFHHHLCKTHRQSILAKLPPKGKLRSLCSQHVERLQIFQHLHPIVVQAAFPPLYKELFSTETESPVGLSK
# Experimental: as §1, §2
# hRORγ LBD = molecular target: T3, hRORγ LBD (Homo sapiens, UniProt P51449); test: Thermal stability by nano differential scanning fluorimetry (nanoDSF); assay type: binding; conditions: RORγ-LBD with 4 equiv ligand vs without ligand; mean ± SD
# T3 construct: His tag (N, cleaved yes); made in house; host or cells: Escherichia coli BL21 DE3
# T3 sequence (P51449 264-518): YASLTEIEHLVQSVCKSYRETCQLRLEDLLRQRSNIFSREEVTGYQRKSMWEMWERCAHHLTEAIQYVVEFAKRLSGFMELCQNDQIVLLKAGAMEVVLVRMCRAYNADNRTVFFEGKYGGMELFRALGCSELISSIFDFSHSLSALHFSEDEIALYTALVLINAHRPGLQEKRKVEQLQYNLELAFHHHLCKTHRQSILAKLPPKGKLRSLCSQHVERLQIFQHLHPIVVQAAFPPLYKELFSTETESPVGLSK
# Experimental: Soluble proteins were purified on Ni Hitrap FFcrude column (Cytiva), followed by His tag removal by thrombin (MP Biomedicals) cleavage and by size exclusion chromatography on HiLoad Superdex200 column (Cytiva) equilibrated in 20 mM Tris-HCl pH 7.5, 150 mM NaCl, 1 mM TCEP (Hampton Research). Purity and homogeneity of the hRORγ LBD were assessed by SDS-PAGE. The purified protein was concentrated to 0.5–1.0 mg/mL with an Amicon Ultra 10 kDa MWCO. The aliquots of purified LBD were incubated with 4 equiv ligands or vehicle for thermal stability experiments.
# Fluorescence-based thermal experiments were performed using a Prometheus NT.48 (NanoTemper Technologies, Germany) with grade standard capillaries containing 10 μL of RORγLBD with different ligands. […] NanoTemper PR. Stability Analysis v1.0.2 was used to fit the data and determine the melting temperatures Tm.
# HEK293 cells = test: Resazurin conversion assay in HEK293 cells; assay type: cell-based, human; conditions: 5 μM, 18 h
# Experimental: (§3) To check the metabolic activity of cells correlating with cell viability, cells were treated with the vehicle control (0.1% DMSO), digitonin as the positive control for cytotoxicity at 20 μg/mL (HEK293 cells) or 50 μg/mL (EL-4-mRORγt cells), or the compounds of interest at 5 μM for 18 h (HEK293 cells) or 20–24 h (EL-4-mRORγt cells). The next day, the medium was carefully removed and replaced with stripped DMEM without phenol red, containing 10 μg/mL resazurin sodium salt. Cells were incubated for 5 h before RFU values were measured at λem = 590 nm using a spectrophotometer. Cell viability was calculated as follows: Cell viability(%)=100×RFU value after compound treatment/RFU value after vehicle control treatment Cytotoxicity was defined as cell viability under 70% according to the ISO 10993–5 guidelines. Cell viability <90% is explicitly stated in the respective figure.
# EL-4-mRORγt cells = test: Resazurin conversion assay in EL-4-mRORγt cells; assay type: cell-based, murine; conditions: 5 μM, 20-24 h
# Experimental: as §3
# [1] = system: Il17a and Il17f (Il17a/f); test: RT-qPCR of Il17a and Il17f in EL-4-mRORγt cells; assay type: cell-based, murine; conditions: 5 μM, 20–24 h, then 4.5-h PMA and ionomycin
# Experimental: For RT-qPCR assays, 5 × 10^5 EL-4-mRORγt cells were seeded in 500 μL complete DMEM per well of a 24-well plate and treated with the vehicle control, the positive control, or the compounds of interest. After incubation for 20–24 h, cells were stimulated with Cell Activation Cocktail (PMA: 40.5 μM, ionomycin: 669.3 μM; 500X) for 4.5 h. Afterward, total RNA was isolated using the innuPREP RNA Mini Kit 2.0 according to the manufacturer’s instructions. According to the manufacturer’s instructions, 1 μg RNA was reverse-transcribed into cDNA using the High-Capacity cDNA Reverse Transcription Kit. RT-qPCR was performed using the Luna Universal qPCR Master Mix on a LightCycler 480 (Roche Diagnostics, Rotkreuz, Switzerland) according to the manufacturer’s instructions. […] Livak’s 2−ΔΔCt method was employed to determine the expression levels of RORγ target genes. This involved normalizing the target gene expression to the expression levels of the control gene 18s, followed by further normalization to the vehicle control.
# Gal4-RORγ H479L = molecular target: T4, Gal4-RORγ H479L (Homo sapiens, UniProt P51449, H479L); test: Gal4-RORγ H479L mutant luciferase assay; conditions: 5 μM
# T4 sequence (P51449 269-508 H479L limits assumed): T1 sequence (P51449 269-508 limits assumed) with H211L
# Experimental: Gal4-hRORγ H323A and H479L mutants were generated using the QuikChange Lightning Site-Directed Mutagenesis Kit according to the manufacturer’s instructions. Briefly, 10 ng template DNA (Gal4-hRORγ) was PCR-amplified with the respective mutagenic forward and reverse primers listed in Table S3, which were designed using the QuikChange Primer Design tool (https://www.agilent.com/store/primerDesignProgram.jsp). […] Two μL of the PCR product were then transformed into XL1-Blue competent E. coli according to a protocol provided by NEB. […] After centrifuging the main culture at 5691g for 10 min, the supernatant was decanted, and plasmid preparation was performed using the PureLink HiPure Plasmid Midiprep Kit according to the manufacturer’s instructions. DNA yields and purities were checked using a NanoDrop 2000c (Thermo Fisher Scientific, Waltham, MA, USA).
smiles,measurement,setting,value
"C=C(C)[C@@H]1CC[C@]2(C(=O)O)CC[C@]3(C)[C@H](CC[C@@H]4[C@@]5(C)CC[C@H](O)C(C)(C)[C@@H]5CC[C@]43C)[C@@H]12 [Betulinic acid, reference compound]","Imax(%) at 5 μM, Gal4-RORγ luciferase assay",Gal4-hRORγ; 5 μM,47%
same,IC50,"Gal4-hRORγ; 18 h treatment, up to 5 μM",1200 nM
same,"Imax(%) at 5 μM, full-length RORγ luciferase assay",full-length human RORγ,38%
same,ΔTm measured with nano differential scanning fluorimetry,hRORγ LBD,9.1 ± 0.2 °C
same,"Cytotoxic effects, resazurin conversion assay",HEK293 cells,no cytotoxic effects
same,"Cytotoxic effects, resazurin conversion assay",EL-4-mRORγt cells,no cytotoxic effects
same,Il17a/f expression,[1],reduction of Il17a/f expression
same,Activity on Gal4-RORγ H479L vs WT,Gal4-RORγ H479L,notable decrease in activity
